Literature values in patent US6534540B2, “Combination and method of treatment of cancer utilizing a COX-2 inhibitor and a 3-hydroxy-3-methylglutaryl-coenzyme-a (HMG-CoA) reductase inhibitor” (priority 2000, dated 2003).

Columns and labels:
prostate cancer specimen = settings: mice, prostate cancer specimen in vivo
[1] = system: Prostate Cancer Cell Line LNCaP
COX-2 = target: T1, COX-2 (Mus musculus, UniProt Q05769); settings: in vivo
T1 sequence (Q05769 18-604): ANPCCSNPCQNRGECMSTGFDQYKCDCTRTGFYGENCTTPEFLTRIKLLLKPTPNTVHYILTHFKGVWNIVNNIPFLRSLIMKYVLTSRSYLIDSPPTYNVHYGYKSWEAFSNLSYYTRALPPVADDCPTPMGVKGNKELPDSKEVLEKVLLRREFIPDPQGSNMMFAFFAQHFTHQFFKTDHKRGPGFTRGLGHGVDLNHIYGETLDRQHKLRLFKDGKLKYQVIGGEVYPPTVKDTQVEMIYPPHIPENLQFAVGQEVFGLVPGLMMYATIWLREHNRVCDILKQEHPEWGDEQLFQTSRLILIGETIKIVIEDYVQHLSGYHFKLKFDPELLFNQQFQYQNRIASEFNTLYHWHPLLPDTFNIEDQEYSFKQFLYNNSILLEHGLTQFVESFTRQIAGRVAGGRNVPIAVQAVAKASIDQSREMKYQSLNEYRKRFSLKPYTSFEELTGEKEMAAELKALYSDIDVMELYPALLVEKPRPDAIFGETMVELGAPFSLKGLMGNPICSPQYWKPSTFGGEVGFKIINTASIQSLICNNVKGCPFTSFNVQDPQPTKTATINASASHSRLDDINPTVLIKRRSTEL

SMILES: CS(=O)(=O)Nc1ccc([N+](=O)[O-])cc1OC1CCCCC1 [NS398]
- angiogenesis (prostate cancer specimen): inhibit angiogenesis

SMILES: CC[C@H](C)C(=O)O[C@H]1C[C@@H](C)C=C2C=C[C@H](C)[C@H](CC[C@@H]3C[C@@H](O)CC(=O)O3)[C@H]21 [lovastatin]
- therapeutic value in prostate cancer [1]: had therapeutic value in treating prostate cancer

SMILES: COc1cc(C2Oc3cc([C@H]4Oc5cc(O)cc(O)c5C(=O)[C@@H]4O)ccc3OC2CO)ccc1O (stereo partly drawn) [silybinin]
- COX-2 inhibition relative to COX-1 inhibition (COX-2): significant COX-2 inhibition relative to COX-1 inhibition
